Common to all, as to conditions: pH 7.4; 22 °C
Assay [1] deals with T1, Fatty-acid amide hydrolase 1 (Mus musculus, UniProt O08914).
T1 sequence (O08914 whole entry): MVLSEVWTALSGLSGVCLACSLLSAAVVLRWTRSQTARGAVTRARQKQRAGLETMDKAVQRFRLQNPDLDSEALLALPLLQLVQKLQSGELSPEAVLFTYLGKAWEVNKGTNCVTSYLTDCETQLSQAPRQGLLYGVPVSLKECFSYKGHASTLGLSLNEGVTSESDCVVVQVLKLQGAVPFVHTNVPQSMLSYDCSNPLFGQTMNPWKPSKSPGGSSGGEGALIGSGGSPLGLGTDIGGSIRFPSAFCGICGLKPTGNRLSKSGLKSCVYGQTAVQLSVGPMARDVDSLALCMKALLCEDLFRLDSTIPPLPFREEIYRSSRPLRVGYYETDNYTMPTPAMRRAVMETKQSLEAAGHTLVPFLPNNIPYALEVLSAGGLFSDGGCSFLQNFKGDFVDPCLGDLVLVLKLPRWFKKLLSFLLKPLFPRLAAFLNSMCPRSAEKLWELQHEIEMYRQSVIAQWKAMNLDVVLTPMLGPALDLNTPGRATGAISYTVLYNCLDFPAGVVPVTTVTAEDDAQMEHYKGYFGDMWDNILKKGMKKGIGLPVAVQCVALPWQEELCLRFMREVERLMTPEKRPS
Put plainly: FAAH Competitive ABPP Using FP-Rhodamine. How it is done:
Mouse brain membrane proteomes were preincubated with varying concentrations of inhibitors for 10 min prior to the addition of a rhodamine-tagged fluorophosphonate (FP-rhodamine). Reactions were quenched after 10 min, subjected to SDS-PAGE, and visualized in-gel using a flatbed fluorescence scanner. Labeled proteins were quantified by measuring integrated band intensities. Dose response curves obtained from three trials at each inhibitor concentration were fit using Prism software (GraphPad) to

Assay [2] deals with T2, Monoacylglycerol lipase ABHD6 (Mus musculus, UniProt Q8R2Y0).
T2 sequence (Q8R2Y0 whole entry): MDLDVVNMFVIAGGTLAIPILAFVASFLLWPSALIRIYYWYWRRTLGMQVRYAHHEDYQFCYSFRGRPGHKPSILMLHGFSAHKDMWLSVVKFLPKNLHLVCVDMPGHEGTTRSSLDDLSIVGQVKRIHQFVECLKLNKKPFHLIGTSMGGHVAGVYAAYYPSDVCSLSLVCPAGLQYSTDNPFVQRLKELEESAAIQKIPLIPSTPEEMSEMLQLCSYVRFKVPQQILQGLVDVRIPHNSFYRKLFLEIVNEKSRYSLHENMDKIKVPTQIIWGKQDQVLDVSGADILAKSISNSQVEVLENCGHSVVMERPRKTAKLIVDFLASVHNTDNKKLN
In words: Serine Hydrolase Activity Assay. From the text:
(§1) Serine hydrolase targets were recombinantly expressed in COS-7 cells by transient transfection. IC50 values were obtained by competitive ABPP with FP-rhodamine.

Assay [3] addresses T3, Monoglyceride lipase (Mus musculus, UniProt O35678).
T3 sequence (O35678 whole entry): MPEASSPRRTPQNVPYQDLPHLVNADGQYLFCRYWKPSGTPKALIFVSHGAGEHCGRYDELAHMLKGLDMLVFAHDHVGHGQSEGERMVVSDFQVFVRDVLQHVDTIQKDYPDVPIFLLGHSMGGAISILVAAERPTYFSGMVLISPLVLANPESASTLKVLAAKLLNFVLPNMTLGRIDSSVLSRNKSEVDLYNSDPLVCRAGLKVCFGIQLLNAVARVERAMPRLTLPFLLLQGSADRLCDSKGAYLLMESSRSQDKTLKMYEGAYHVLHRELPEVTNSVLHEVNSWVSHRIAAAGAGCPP
Put plainly: Serine Hydrolase Activity Assay.
Source text: as §1

The target in assay [4] is T4, Neutral cholesterol ester hydrolase 1 (Mus musculus, UniProt Q8BLF1).
T4 sequence (Q8BLF1 whole entry): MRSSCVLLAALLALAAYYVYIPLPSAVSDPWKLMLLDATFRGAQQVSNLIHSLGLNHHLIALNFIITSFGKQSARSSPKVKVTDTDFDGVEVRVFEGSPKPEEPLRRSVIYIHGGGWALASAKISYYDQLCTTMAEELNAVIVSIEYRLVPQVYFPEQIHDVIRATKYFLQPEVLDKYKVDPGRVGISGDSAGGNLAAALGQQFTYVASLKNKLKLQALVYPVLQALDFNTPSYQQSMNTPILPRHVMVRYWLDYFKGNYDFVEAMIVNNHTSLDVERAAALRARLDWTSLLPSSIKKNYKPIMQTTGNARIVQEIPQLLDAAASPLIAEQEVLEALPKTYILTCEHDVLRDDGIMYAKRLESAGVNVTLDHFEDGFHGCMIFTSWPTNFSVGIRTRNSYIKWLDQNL
In words: Serine Hydrolase Activity Assay.
Source text: as §1

The text below walks through data of BindingDB's records for doi:10.1021/ja062999h (The Scripps Research Institute, 2006).

Broadly, the IC50 is the concentration needed to halve the response being measured. A low value points to higher potency. Turning to `CN(C)C(=O)n1nnnc1Cc1ccc(-c2ccccc2)cc1` [N,N-dimethyl-5-[(4-phenylphenyl)methyl]-1H-1,2,3,4-tetrazole-1-carboxamide], the IC50 was determined as 13 nM in assay [1], 0.09 nM in assay [2], 5.3 nM in assay [3] and 8.2 nM in assay [4].
